Series [1] in a line: Form B deoxycytidine 12-month stability study (Example 4). It counts as physicochemical. The following applies: four lots; long-term storage 25±2° C./60±5% relative humidity and accelerated storage 40±2° C./75±5% relative humidity; measured at 3, 6, 9 and 12 months. As for the experimental part:
A study was conducted to determine the stability of Form B deoxycytidine prepared by the methods in Example 1 over a 12-month period. Four lots of material were studied: (1) and (2) were packaged in a polyethylene (PE) bag sealed with a cable tie, (3) was packed in a PE bag with silica gel sealed with a cable tie, and (4) was packaged in a PE drum sealed with a cap. […]
All attributes were measured initially (0 months) to confirm compliance with the standards above. Appearance, IR, HPLC and water content were then measured at 3, 6, 9 and 12 months to confirm compliance. Microbial content was measured again at 12 months.

Series [2] is described as follows: Stability of Form B by XRPD pattern after storage (no conversion to Form A). The series is classed as physicochemical. The text has this: “Stability”, as used herein, can be measured by confirming the Form B XRPD pattern of the material after a given storage time. Conversion of Form B to Form A deoxycytidine, as determined by)(RFD, indicates instability. Stability can also be measured by confirming compliance with the test attribute standards as outlined in Example 4. Test attributes include physical appearance, IR trace, HPLC trace for active and impurities, water content, residual solvent content, elemental impurities and microbial growth. One or more of these attributes can be measured after storage over a given period of time, e.g. 6 months, 12 months or more, and under various conditions, e.g. 25±2° C./60±5% relative humidity or 40±2° C./75±5% relative humidity).
XRPD data for a mixture of A and B dC isoforms (2DC (A+B mix)), the B isoform produced in the small-scale manufacturing run (2DC(7)/S-P-17001 initial) and the isolated A isoform is provided in Table 2. The stability Form B was confirmed by determining the XRPD after 12 months of storage (2DC(7)/S-P-17001 12 month).

With `Nc1ccn([C@H]2C[C@H](O)[C@@H](CO)O2)c(=O)n1` [Form B deoxycytidine, Deoxycytidine (2′-Deoxycytidine, dC)], the “changes in test attributes (appearance, IR, HPLC, water content, microbial content) from initial to 12 months” value in series [1] was “no significant changes”. In addition, the “stability of Form B, XRPD pattern after storage” value in series [2] (after 12 months of storage, lot 2DC(7)/S-P-17001, 4 kg scale) is listed as “confirmed”. The “time for which the form is stable” value in series [2] (stored in a sealed container at e.g. room temperature) was “at least 6 months”.

The values are drawn from US11649259B2, “Polymorphic forms of deoxycytidine, compositions comprising the same and uses” (ZOGENIX MDS, INC., priority 2019, dated 2023).
